From patent US6087361A, “Aryl-imidazolines and aryl-imidazoles useful as α-2 adrenergic agonists without cardiovascular side effects” (Allergan Sales, Inc., priority 1997, dated 2000)
Like-named read-outs stand apart in the source and are kept apart here.

What was measured:
[1] = target: α1; test: Receptor binding, [3H]prazosin, human cerebral cortex membranes (HCC); details: 22° C., 30 min
Method: Tissue preparation: Membrane suspensions were prepared from human cerebral cortex ([…], for α1 receptors) obtained from the UCI Organ and Tissue Bank. Briefly, tissues (1 g) were homogenized in 25 mL of ice-cold 5 mM Tris, pH 7.4 with a Polytron homogenizer for 30 sec at setting #7, and centrifuged for
10-12 minutes at 300× g at 4° C. The supernatant was filtered through 2 layers of gauze and diluted 1:2 with 50 mM Tris-HCl buffer, pH 7.4, then centrifuged at 49,000× g for 20 minutes. The pellet fraction was washed 3 times (resuspended in Tris-HCl buffer and centrifuged for 20 minutes; at 49,000× g). The pellet was then stored at -80° C. until the binding assay.
(§1) Binding Studies: The radioligands [^3 H]rauwolscine (specific activity 80 Ci/mmol) and [^3 H]prazosin (specific activity 76 Ci/mmol) were obtained from New England Nuclear, Boston, Mass. Frozen membrane pellet was resuspended in 25 mM glycine/glycine, pH 7.5 and incubated with radioligand under the following conditions: CHO-C10, CHO-RNG, CHO-C4-[^3 H]rauwolscine, 22° C., 30 minutes; RKC-[^3 H]rauwolscine, 0° C., 120 minutes; and, HCC-[^3 H]prazosin, 22° C., 30 minutes in a final volume of 500 ul. At the end of the incubation period, the samples were filtered through glass filters (Whatman GF/B) in a 96 well cell harvester and rapidly washed four times with 4 mL of iced-cold 50 mM Tris-HCl buffer. The filters were then oven dried and transferred to scintillation vials containing 10 mL of Beckman's Ready Protein® scintillation cocktail for counting. […] Protein concentrations were determined with a protein assay kit from Bio Rad. Binding isotherms, equilibrium dissociation and affinity constants were analyzed and determined by the non-linear least squares curve fitting programs EBDA (BioSoft) or AccuFit Competition/Saturation by Beckman.
(§2) The radioligands [^3 H] rauwolscine (specific activity 80 Ci/mmol) and [^3 H] prazosin (specific activity 76 Ci/mmol) were obtained from New England Nuclear, Boston, Mass. Frozen membrane pellet was resuspended in 25 mM glycine/glycine, pH 7.4 and incubated with radioligand under the following conditions: CHO-C10, CHO-RNG, CHO-C4-[^3 H]rauwolscine, 22° C., 30 min.; and, HCC-[^3 H]prazowsin, 22° C., 30 minutes in a final volume of 500 ul. At the end of the incubation period, the samples were filtered through glass fiber filters (Whatman GF/B) in a 96 well cell harvester and rapidly washed four times which 4 mL of iced-cold 50 mM Tris-CHI buffer. The filters were then oven dried and transferred to scintillation vials containing 5 mL of Beckman's Ready Protein® scintillation cocktail for counting. […] Protein concentrations were determined with a protein assay kit from Bio lad. Binding isotherms, equilibrium dissociation and affinity constants were analyzed and determined by the non-linear least squares curve fitting programs AccuFit Competition/Saturation by Beckman.
(§3) Representative compounds of the present invention were tested according to the procedures given above. […] The receptor binding studies and K1 are measures of the affinity of a compound for a particular receptor.

[2] = target: T1, rat α2B (Rattus norvegicus, UniProt P19328); test: Receptor binding, [3H]rauwolscine, CHO-RNG cells expressing rat α2B
T1 construct: expressed in transfected cells; host or cells: CHO cells (CHO-RNG)
T1 sequence (P19328 1-453): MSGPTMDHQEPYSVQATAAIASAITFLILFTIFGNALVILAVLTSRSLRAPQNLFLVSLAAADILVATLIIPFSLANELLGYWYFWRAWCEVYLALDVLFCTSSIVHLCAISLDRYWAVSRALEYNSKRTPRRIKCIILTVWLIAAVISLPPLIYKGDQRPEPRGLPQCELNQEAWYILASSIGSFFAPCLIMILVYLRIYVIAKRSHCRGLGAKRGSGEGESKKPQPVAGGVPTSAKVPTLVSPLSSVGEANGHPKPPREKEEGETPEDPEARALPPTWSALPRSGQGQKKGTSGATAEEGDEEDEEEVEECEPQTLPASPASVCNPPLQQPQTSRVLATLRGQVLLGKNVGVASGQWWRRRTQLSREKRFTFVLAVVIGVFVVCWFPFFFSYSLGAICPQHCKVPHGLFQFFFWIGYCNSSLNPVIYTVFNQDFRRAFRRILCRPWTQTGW
Method: (§4) Cell preparation: Chinese hamster ovary (CHO) cells expressing the human α2A and human α2C (CHO-C10 and CHO-C4 respectively) receptors and CHO cells (CHO-RNG) expressing the rat α2B, adrenoceptor were grown to near confluence in Dulbecco's modified Eagle's medium supplemented with 10% fetal bovine serum using standard cell culture methods. Cells were harvested by scraping and placed into cold buffer of the following composition: 50 mM Tris-HCl, 5 mM EDTA, pH 7.4). […] The pellet fraction was washed (resuspended in Tris-HCl, pH 8 buffer and centrifuged for 15-20 minutes at 49,000× g) 2 times and stored at -100° until binding assay.
as §1
Cell Preparation: Chinese hamster ovary (CHO) cells expressing the human α2A (CHO-C10) and the rate α2B (CHO-RNG) […] were grown to near confluence in Dulbecco's modified Eagle's medium supplemented with 10% fetal bovine serum using standard cell culture methods. Cells were harvested by scraping and placed into cold buffer of the following composition: 50 mM Tris-HCl, 5 mM EDTA, pH 7.4). […] The pellet fraction was washed (resuspended in Tris-HCl, pH 8 buffer and centrifuged for 15-20 minutes at 49,000× g) 2 times and stored at […] until binding assay.
as §2, §3

[3] = target: T2, human α2C (Homo sapiens, UniProt P18825); test: Receptor binding, [3H]rauwolscine, CHO-C4 cells expressing human α2C; details: CHO-C4, 22° C., 30 min
T2 construct: expressed in transfected cells; host or cells: CHO cells (CHO-C4)
T2 sequence (P18825 1-462): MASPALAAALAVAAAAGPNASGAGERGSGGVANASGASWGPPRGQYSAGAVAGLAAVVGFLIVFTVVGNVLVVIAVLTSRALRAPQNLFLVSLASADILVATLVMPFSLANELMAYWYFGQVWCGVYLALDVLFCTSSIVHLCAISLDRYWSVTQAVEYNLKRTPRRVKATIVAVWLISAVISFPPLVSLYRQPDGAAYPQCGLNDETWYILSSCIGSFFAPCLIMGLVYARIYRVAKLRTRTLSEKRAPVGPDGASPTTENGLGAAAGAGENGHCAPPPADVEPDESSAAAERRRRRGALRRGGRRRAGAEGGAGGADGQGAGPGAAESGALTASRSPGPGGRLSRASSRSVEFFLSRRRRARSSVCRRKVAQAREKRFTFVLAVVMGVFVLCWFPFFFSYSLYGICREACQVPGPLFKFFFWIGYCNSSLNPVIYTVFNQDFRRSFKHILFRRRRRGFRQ
Method: as §4, §1, §2, §3

[4] = target: I2A; test: Receptor binding, I2A
[5] = rabbit
[6] = [3H]rauwolscine, CHO-RNG, 22° C., 30 min, read-out: Ki α2B

Row | SMILES | Ki [1] [nM] | Ki [3] [nM] | Ki [4] [nM] | Ki [2, 6] [nM] | Ki [2] [nM] | IOP of the untreated eye (systemic effect) ([5]; in vivo) | lowering of intraocular pressure (IOP), treated eye ([5]; single drop of 0.001%, topical, one eye)
1 | Cc1ccccc1NC1=NCCN1 [Example 1] | 5030 | 70 | 1200 | – | 49 | – | –
2 | Cc1c(NC2=NCCN2)ccc2c1OCCO2 [Example 13] | 129 | 3.5 | 100000 | – | 4 | – | –
3 | Cc1c(NC2=NCCN2)ccc2c1NCCN2 [Example 8] | 8720 | 124 | 100000 | 139 | – | – | –
4 | c1cc2c(cc1NC1=NCCN1)NCCN2 [Example 7] | 5100 | 463 | 100000 | 262 | – | – | –
5 | c1cc2c(cc1NC1=NCCN1)OCCO2 [Example 11] | 2400 | – | 1080 | – | 28 | – | –
6 | Nc1cc(Cl)c(NC2=NCCN2)c(Cl)c1 [Example 3] | 181 | 21 | 64800 | 4.8 | – | – | –
7 | COc1ccc(NC2=NCCN2)c(C)c1OC [Example 12] | 1450 | 93 | 100000 | 196 | – | – | –

Continued, in another order:

Row | Ki [1] [nM] | Ki [3] [nM] | Ki [4] [nM] | Ki [2, 6] [nM] | SMILES | Ki [2] [nM] | IOP of the untreated eye (systemic effect) ([5]; in vivo) | lowering of intraocular pressure (IOP), treated eye ([5]; single drop of 0.001%, topical, one eye)
8 | 2260 | 134 | – | 241 | Cc1c(NC2=NCCN2)ccc2c1NC(=O)CO2 [Example 15] | – | – | –
9 | 11300 | 457 | – | 895 | Cc1c(O)cccc1Nc1ncc[nH]1 [Example 20] | – | – | –
10 | 4180 | 88 | 100000 | 221 | COc1c(C(C)(C)C)cc(C)c(Nc2ncc[nH]2)c1C [Example 22] | – | – | –
11 | 5210 | 180 | 141 | 295 | Cc1cccc(Nc2ncc[nH]2)c1C [Example 18] | – | – | –
12 | 8990 | – | 4500 | 842 | O=C1COc2ccc(NC3=NCCN3)cc2N1 [Example 14] | – | – | –
13 | 6610 | 293 | 24800 | 194 | CC1CNc2c(ccc(NC3=NCCN3)c2Br)N1 (stereo not shown) [Example 10] | – | – | –
14 | 473 | 8.9 | 100000 | 30 | Cc1c(NC2=NCCN2)ccc2c1NCCO2 [Example 16] | – | without lowering IOP in the untreated eye | greater effect in lowering IOP than clonidine
15 | 1120 | 120 | 7560 | 47 | Brc1c(NC2=NCCN2)ccc2c1NCCN2 [Example 9] | – | – | –
